Experimental findings from PubChem BioAssay (NCI) are described below.

Among the test systems are SK-MEL-28 melanoma; RPMI-8226 leukemia; UACC-62 melanoma; ACHN renal; DLD-1 colon; SF-268 CNS; KM20L2 colon; EKVX NSCLC; LOX IMVI melanoma; SK-MEL-5 melanoma.
What all share (test): DTP human tumour cell line panel, 48 h

Structures are written as SMILES.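 Cultured in 96-well plates, cells were exposed to test compound for 48 hours across five concentrations. GI50 is the concentration that inhibits growth by half. TGI denotes the concentration required for complete inhibition of growth.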

Regarding `CC(C)[O-].CC(C)[O-].O=C1C=C([O-])C(=O)c2ccccc21.O=C1C=C([O-])C(=O)c2ccccc21.[Ti+4]`, the GI50 in the test with SK-MEL-28 melanoma is more than 100 µM; in the test on RPMI-8226 leukemia it was 19.1 µM; in the test with UACC-62 melanoma it was 17.6 µM; with ACHN renal it was more than 85.5 µM; with DLD-1 colon, more than 100 µM; in the test on SF-268 CNS, more than 100 µM. Further, the GI50 in the test with KM20L2 colon was 44.1 µM; with EKVX NSCLC, more than 44.8 µM; in the test with LOX IMVI melanoma, 5.21 µM; in the test on SK-MEL-5 melanoma, 6.32 µM. In addition, the total growth inhibition concentration (TGI) in the test on SK-MEL-28 melanoma, in the test with RPMI-8226 leukemia, with UACC-62 melanoma, in the test with ACHN renal, in the test with DLD-1 colon and with SF-268 CNS was more than 100 µM in each case. Also, the TGI is more than 100 µM in the test on KM20L2 colon, more than 91.1 µM in the test on EKVX NSCLC, more than 100 µM in the test on LOX IMVI melanoma and more than 66.8 µM with SK-MEL-5 melanoma.

Consider `COc1ccc(NC(=O)CC/C(CC(=O)C(C)(C)C)=N\NC(=O)C(=O)NN)cc1`, for which the TGI with SK-MEL-28 melanoma, in the test with RPMI-8226 leukemia, in the test with UACC-62 melanoma, with ACHN renal, in the test with DLD-1 colon and with SF-268 CNS was more than 100 µM each time. Moreover, the TGI in the test with KM20L2 colon, in the test with EKVX NSCLC, in the test with LOX IMVI melanoma and in the test with SK-MEL-5 melanoma was more than 100 µM throughout.
